Laboratory results published in patent publication EP0908457B1, “3-(1,2-benzisothiazol- and isoxazol-5-Y1)-2,4(1H,3H)-pyrimidinedione or thione and 3-(1,2-benzisothiazol- and isoxazol-5-y1)-4(3H)-pyrimidinone or thione herbicidal agents” (BASF AKTIENGESELLSCHAFT, priority 1997, dated 1999).

What was measured:
[1] = system: Oryza sativa, (L.) Tebonnet; assay: Rice tolerance to post-transplant applications under flooded paddy conditions (Example 187), ORYSAT (Rice, Tebonnet); conditions: rated three to four weeks after treatment
[2] = system: Cyperus serotinus, Rottb.; assay: Preemergence weed control under flooded paddy conditions, CYPSE (Flatsedge); format: in vivo; conditions: preemergence, rated three to four weeks after treatment; note: meaning of each grade not given here
[3] = system: Monochoria vaginalis, Presl.; assay: Postemergence weed control under flooded paddy conditions, MOOVA (Monochoria); format: in vivo; conditions: rated three to four weeks after treatment
[4] = system: Cyperus serotinus, Rottb.; assay: Postemergence weed control under flooded paddy conditions, CYPSE (Flatsedge); format: in vivo; conditions: rated three to four weeks after treatment
[5] = system: Monochoria vaginalis, Presl.; assay: Preemergence weed control under flooded paddy conditions, MOOVA (Monochoria); format: in vivo; conditions: preemergence, flooded paddy, rated three to four weeks after treatment; note: meaning of each grade not given here
Sagittaria pygmaea, L. [6] = assay: Postemergence weed control under flooded paddy conditions, SAGPY (Arrowhead (Pygmaea)); format: in vivo; conditions: rated three to four weeks after treatment
Cyperus iria [7] = assay: Postemergence weed control under flooded paddy conditions, CYPIR (Rice Flatsedge); format: in vivo; conditions: rated three to four weeks after treatment
Sagittaria pygmaea, L. [8] = assay: Preemergence weed control under flooded paddy conditions, SAGPY (Arrowhead (Pygmaea)); format: in vivo; conditions: preemergence, flooded paddy, rated three to four weeks after treatment; note: meaning of each grade not given here
[9] = system: Echinochloa oryzoides (Ard.) Fritsch.; assay: Postemergence weed control under flooded paddy conditions, ECHORC (Watergrass (Calif.)); format: in vivo; conditions: rated three to four weeks after treatment
[10] = system: Oryza sativa, (L.) Tebonnet; assay: Rice tolerance to post-transplant applications under flooded paddy conditions (Example 188), ORYSAT (Rice, Tebonnet); conditions: rated three to four weeks after treatment
[11] = system: Echinochloa oryzoides (Ard.) Fritsch.; assay: Preemergence weed control under flooded paddy conditions, ECHORC (Watergrass (Calif.)); format: in vivo; conditions: preemergence, flooded paddy, rated three to four weeks after treatment; note: meaning of each grade not given here
Cyperus iria [12] = assay: Preemergence weed control under flooded paddy conditions, CYPIR (Rice Flatsedge); format: in vivo; conditions: preemergence, flooded paddy, rated three to four weeks after treatment; note: meaning of each grade not given here

## COc1ccc(C)cc1-c1nsc2ccc(-n3c(=O)cc(C(F)(F)F)n(C)c3=O)cc12 [Example 1, 3-[3-(6-Methoxy-m-tolyl)-1,2-benzisothiazol-5-yl]-1-methyl-6-(trifluoromethyl)-2,4(1H,3H)-pyrimidinedione]
[1]; 0.0313 kg/ha
  herbicidal effect rating, ORYSAT (rice tolerance): 4.7
[1]; 0.0625 kg/ha
  herbicidal effect rating, ORYSAT (rice tolerance): 4.7
[1]; 0.1250 kg/ha
  herbicidal effect rating, ORYSAT (rice tolerance): 5.3
[1]; 0.2500 kg/ha
  herbicidal effect rating, ORYSAT (rice tolerance): 7.7
[1]; 0.5000 kg/ha
  herbicidal effect rating, ORYSAT (rice tolerance): 7.0
[2]; 0.0313 kg/ha
  herbicidal effect rating, CYPSE: 1.3
[2]; 0.0625 kg/ha
  herbicidal effect rating, CYPSE: 3.0
[2]; 0.1250 kg/ha
  herbicidal effect rating, CYPSE: 6.0
[2]; 0.2500 kg/ha
  herbicidal effect rating, CYPSE: 9.0
[2]; 0.5000 kg/ha
  herbicidal effect rating, CYPSE: 8.0
[3]; Rate 0.0313 kg/ha
  herbicidal effect rating, MOOVA: 0.0
[3]; Rate 0.0625 kg/ha
  herbicidal effect rating, MOOVA: 1.0
[3]; Rate 0.1250 kg/ha
  herbicidal effect rating, MOOVA: 4.5
[3]; Rate 0.2500 kg/ha
  herbicidal effect rating, MOOVA: 5.5
[3]; Rate 0.5000 kg/ha
  herbicidal effect rating, MOOVA: 6.5
[4]; Rate 0.0313 kg/ha
  herbicidal effect rating, CYPSE: 1.0
[4]; Rate 0.0625 kg/ha
  herbicidal effect rating, CYPSE: 1.0
[4]; Rate 0.1250 kg/ha
  herbicidal effect rating, CYPSE: 3.0
[4]; Rate 0.2500 kg/ha
  herbicidal effect rating, CYPSE: 5.5
[4]; Rate 0.5000 kg/ha
  herbicidal effect rating, CYPSE: 6.5
[5]; 0.0313 kg/ha
  herbicidal effect rating, MOOVA: 9.0
[5]; 0.0625 kg/ha
  herbicidal effect rating, MOOVA: 9.0
[5]; 0.1250 kg/ha
  herbicidal effect rating, MOOVA: 9.0
[5]; 0.2500 kg/ha
  herbicidal effect rating, MOOVA: 9.0
[5]; 0.5000 kg/ha
  herbicidal effect rating, MOOVA: 9.0
Sagittaria pygmaea, L. [6]; Rate 0.0313 kg/ha
  herbicidal effect rating, SAGPY: 0.0
Sagittaria pygmaea, L. [6]; Rate 0.0625 kg/ha
  herbicidal effect rating, SAGPY: 0.0
Sagittaria pygmaea, L. [6]; Rate 0.1250 kg/ha
  herbicidal effect rating, SAGPY: 0.0
Sagittaria pygmaea, L. [6]; Rate 0.2500 kg/ha
  herbicidal effect rating, SAGPY: 1.0
Sagittaria pygmaea, L. [6]; Rate 0.5000 kg/ha
  herbicidal effect rating, SAGPY: 3.0
Cyperus iria [7]; Rate 0.0313 kg/ha
  herbicidal effect rating, CYPIR: 0.0
Cyperus iria [7]; Rate 0.0625 kg/ha
  herbicidal effect rating, CYPIR: 4.0
Cyperus iria [7]; Rate 0.1250 kg/ha
  herbicidal effect rating, CYPIR: 9.0
Cyperus iria [7]; Rate 0.2500 kg/ha
  herbicidal effect rating, CYPIR: 9.0
Cyperus iria [7]; Rate 0.5000 kg/ha
  herbicidal effect rating, CYPIR: 9.0
Sagittaria pygmaea, L. [8]; 0.0313 kg/ha
  herbicidal effect rating, SAGPY: 3.3
Sagittaria pygmaea, L. [8]; 0.0625 kg/ha
  herbicidal effect rating, SAGPY: 5.0
Sagittaria pygmaea, L. [8]; 0.1250 kg/ha
  herbicidal effect rating, SAGPY: 6.7
Sagittaria pygmaea, L. [8]; 0.2500 kg/ha
  herbicidal effect rating, SAGPY: 8.3
Sagittaria pygmaea, L. [8]; 0.5000 kg/ha
  herbicidal effect rating, SAGPY: 8.5
[9]; Rate 0.0313 kg/ha
  herbicidal effect rating, ECHORC: 1.0
[9]; Rate 0.0625 kg/ha
  herbicidal effect rating, ECHORC: 2.5
[9]; Rate 0.1250 kg/ha
  herbicidal effect rating, ECHORC: 6.5
[9]; Rate 0.2500 kg/ha
  herbicidal effect rating, ECHORC: 8.0
[9]; Rate 0.5000 kg/ha
  herbicidal effect rating, ECHORC: 9.0
[10]; Rate 0.0313 kg/ha
  herbicidal effect rating, ORYSAT (rice tolerance): 3.0
[10]; Rate 0.0625 kg/ha
  herbicidal effect rating, ORYSAT (rice tolerance): 3.0
[10]; Rate 0.1250 kg/ha
  herbicidal effect rating, ORYSAT (rice tolerance): 4.0
[10]; Rate 0.2500 kg/ha
  herbicidal effect rating, ORYSAT (rice tolerance): 6.0
[10]; Rate 0.5000 kg/ha
  herbicidal effect rating, ORYSAT (rice tolerance): 7.0
[11]; 0.0313 kg/ha
  herbicidal effect rating, ECHORC: 9.0
[11]; 0.0625 kg/ha
  herbicidal effect rating, ECHORC: 9.0
[11]; 0.1250 kg/ha
  herbicidal effect rating, ECHORC: 9.0
[11]; 0.2500 kg/ha
  herbicidal effect rating, ECHORC: 9.0
[11]; 0.5000 kg/ha
  herbicidal effect rating, ECHORC: 9.0
Cyperus iria [12]; 0.0313 kg/ha
  herbicidal effect rating, CYPIR: 9.0
Cyperus iria [12]; 0.0625 kg/ha
  herbicidal effect rating, CYPIR: 9.0
Cyperus iria [12]; 0.1250 kg/ha
  herbicidal effect rating, CYPIR: 9.0
Cyperus iria [12]; 0.2500 kg/ha
  herbicidal effect rating, CYPIR: 9.0
Cyperus iria [12]; 0.5000 kg/ha
  herbicidal effect rating, CYPIR: 9.0
